The assay has as its system P388/ADR leukemia. Kind of assay: NCI tumour cell line growth inhibition, 48 h.

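Test compounds were applied to cells in 96-well plates for 48 hours at 5 doses. The concentration for full growth arrest is given as TGI.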

Turning to `N[C@H](C(=O)O)[C@@H]1CC(Cl)=NO1`, the TGI worked out at 16.7 µM.

The record behind these values is PubChem BioAssay (NCI).
